Measured values as given in patent publication US4293713A, “Novel 1,1,3,5-substituted biuret compound and a pharmaceutical composition containing the same” (priority 1979, dated 1981).
Where two headings read alike, the source gives them in different places.

What was measured:
ddy strain of male mice [1] = experiment: Acute toxicity (oral, 7 days observation); format: in vivo; conditions: oral, mice, 7 days
Procedure: (§1) Next, several tests for determining the pharmacological properties, in that acute toxicity, anti-pyretic activity, analgesic activity and anti-inflammatory activity of the present 1,1,3,5-substituted biuret compounds of the formula (1) were conducted and the test results are shown in Table (2). In the tests, each compounds to be tested was used as a suspension in 0.25% carboxymethylcellulose solution. Methods for testing are explained as follows:
The ddy strain of male mice (body weight, 20-25 g) were used as test animals. The mice were fasted overnight and the compound to be tested was administered orally. […] The lethal dose (mg/kg, body weight) of the test compound was determined in connection with the death number of mice/the number of mice tested. In Table 2, the values indicated with Δ marks are 50% lethal dose, LD50 (mg/kg, body weight).

[2] = system: Wistar strain of male rats; experiment: Anti-pyretic activity (dry-yeast induced fever); format: in vivo, rat (Wistar strain; conditions: oral, up to 4 hours after administration, dose not given
Procedure: as §1
According to the method reported by Tanabe [Folia Pharmacologia Japonica, Vol. 73, pp. 803 (1977)], the Wistar strain of male rats (150-180 g body weight) were used as test animals. The rats were fasted overnight, and 1 ml/100 g (body weight) of 10% dry-yeast suspension were subcutaneously injected on the back of the rats. Five hours after the injection, the test compound was administered orally, then the body temperature of the rat was measured at time sequences. Anti-pyretic activity of the test compound was determined as the FI (febril index) by integrating pyrogenetic curve up to 4 hours after the administration of the test compound with time, and indicated as inhibitory ratio (%) shown by the following formula, [formula]

ddy strain of male mice [3] = experiment: Analgesic activity, acetic acid-induced stretching method; format: in vivo, mouse (ddy strain; conditions: Mus musculus; for inhibition in vivo at 100 mg/kg / inhibition in vivo at 60 mg/kg: read-out: Analgesic activity, acetic acid-induced stretching method, inhibitory ratio
Procedure: as §1
According to the method reported by Koster et al., [Fed. Proc., Vol. 18, pp. 412 (1959)], the ddy strain of male mice (body weight, 20-25 g) were used as test animals. The mice were fasted overnight, 100 mg/kg body weight of the test compound was administered orally, then 1 hour after the administration, 0.2 ml of 0.7% acetic acid solution was injected intraperitoneally. The acetic acid-induced stretching symptom of mouse was observed. Analgesic activity of the test compound was calculated as the inhibitory ratio (%). In Table 2, the values in Parentheses show the data obtained from the test by using the dosage other than 100 mg/kg body weight. Further, the values indicated with Δ marks show 50% effective dose, ED50 (mg/kg body weight).

ddy strain of male mice [4] = experiment: Analgesic activity, Haffner method; format: in vivo, mouse (ddy strain; conditions: with threshold morphine hydrochloride s.c.
Procedure: as §1
According to the modified method reported by Fujimura et al., [Bulletin of the Institute for Chemical Research, Kyoto University, No. 25, pp. 36 (1951)], the ddy strain of male mice (body weight, 20-25 g) were used as test animals. The mice were fasted overnight, 100 mg/kg body weight of the test compound was administered orally, then 45 minutes after the administration, the threshold amount (1.5-2.5 mg/kg body weight) of morphine hydrochloride was injected subcutaneously. Then 1-hour pain reaction of the mouse caused by a clamp was observed. Analgesic activity of the test compound was calculated as the inhibitory ratio (%). In Table 2, the values in parentheses show the data obtained from the test by using the dosage other than 100 mg/kg body weight. Further, the values indicated with Δ marks show 50% effective dose, ED50 (mg/kg body weight).

[5] = system: Wistar strain of male rats; experiment: Anti-inflammatory activity, acute carrageenin-induced inflammatory test; format: in vivo, rat (Wistar strain; conditions: Rattus norvegicus
Procedure: as §1
According to the method of acute carrageenin-induced inflammatory test [Folia Pharmacologia Japonica, Vol. 56, pp. 575 (1960)], the Wistar strain of male rats (body weight, 150-180 g) were used as test animals. The rats were fasted overnight, 100 mg/kg body weight of the test compound was administered orally, then 1 hour after the administration, 0.1 ml of 1% carrageenin solution, as the inflammation inducing agent, was injected subcutaneously to the hindpaw of the rat and the volume of the hindpaw was measured at time sequences. Anti-inflammatory activity of the test compound was calculated as inflammation inhibitory ratio (%) at 3 hours after the injection of the inflammation inducing agent.

[6] = po, 2 h, read-out: Anti-inflammatory activity, inflammation inhibitory ratio (2 hours value)
[7] = po, 3 h, read-out: Anti-inflammatory activity, inflammation inhibitory ratio

SMILES | Acute toxicity, death number of mice/number of mice tested (ddy strain of male mice [1]; 1000 mg/kg) | Acute toxicity, death number of mice/number of mice tested (ddy strain of male mice [1]; 2000 mg/kg) | Anti-pyretic activity, inhibitory ratio of febril index (FI) [2] | inhibition in vivo at 100 mg/kg (ddy strain of male mice [3]; po) | Analgesic activity, Haffner method, inhibitory ratio (ddy strain of male mice [4]; 100 mg/kg oral) | further results
CN(C)C(=O)N(C)C(=O)Nc1ccc(Cl)c(Cl)c1 [compound 10, 1,1,3-Trimethyl-5-(3,4-dichlorophenyl)biuret] | 1/4 | 3/4 | 43% | 50% | 62.5% | –
Cc1ccc(NC(=O)N(C)C(=O)N(C)C)cc1C [Compound No. 25, 1,1,3-Trimethyl-5-(3,4-dimethylphenyl)biuret] | – | 1/4 | 31% | – | – | inhibition in vivo at 60 mg/kg (ddy strain of male mice [3]; 60 mg/kg oral, mice): 87.5%
CCCN(C(=O)Nc1ccccc1)C(=O)N(C)C [compound 31, 1,1-Dimethyl-3-n-propyl-5-phenylbiuret] | – | 0/4 | 12% | 37.5% | – | Analgesic activity, Haffner method, inhibitory ratio (ddy strain of male mice [4]; 200 mg/kg oral): 62.5%
CC(=O)c1ccc(NC(=O)N(C)C(=O)N(C)C)cc1 [compound 27, 1,1,3-Trimethyl-5-(4-acetylphenyl)biuret] | 4/4 | – | 36% | – | 37.5% | Acute toxicity, death number of mice/number of mice tested (ddy strain of male mice [1]; 500 mg/kg): 0/4; inhibition in vivo at 100 mg/kg (ddy strain of male mice [3]; 100 mg/kg oral, mice): 62.5%; inhibition in vivo at 100 mg/kg [5, 6]: 31%
Cc1cccc(NC(=O)N(C)C(=O)N(C)C)c1 [compound 21, 1,1,3-Trimethyl-5-(3-methylphenyl)biuret] | – | 2/4 | 31% | 75% | 37.5% | inhibition in vivo at 100 mg/kg [5, 7]: 28%
CN(C)C(=O)N(C)C(=O)Nc1ccccc1C(F)(F)F [compound 12, 1,1,3-Trimethyl-5-(2-trifluoromethylphenyl)biruet] | 1/4 | – | 65% | 12.5% | 37.5% | inhibition in vivo at 100 mg/kg [5, 7]: 66%
COc1ccc(NC(=O)N(C)C(=O)N(C)C)cc1OC [compound 18, 1,1,3-Trimethyl-5-(3,4-dimethoxyphenyl)biuret] | 0/4 | 4/4 | 18% | 75% | 62.5% | –
Cc1c(Cl)cccc1NC(=O)N(C)C(=O)N(C)C [compound 26, 1,1,3-Trimethyl-5-(2-methyl-3-chlorophenyl)biuret] | 1/4 | 4/4 | 45% | 75% | 25% | –
CSc1ccc(NC(=O)N(C)C(=O)N(C)C)cc1 [compound 28, 1,1,3-Trimethyl-5-(4-methylthiophenyl)biuret] | 0/4 | 4/4 | – | 50% | – | –
CN(C)C(=O)N(C)C(=O)Nc1ccc(N(C)C)cc1 [compound 14, 1,1,3-Trimethyl-5-(4-dimethylaminophenyl)biuret] | – | 0/4 | 26% | 62.5% | 50% | inhibition in vivo at 100 mg/kg ([5]; 100 mg/kg oral, rats, 2 hours value, read-out: Anti-inflammatory activity, inflammation inhibitory ratio (2 hours value)): 32%
CCCN(C)C(=O)N(C)C(=O)Nc1ccccc1 [Compound No. 34, 1,3-dimethyl-1-propyl-5-phenylbiuret] | 1/4 | 4/4 | 44% | – | 37.5% | inhibition in vivo at 60 mg/kg (ddy strain of male mice [3]; po): 75%; inhibition in vivo at 100 mg/kg [5, 6]: 26%
COc1cc(NC(=O)N(C)C(=O)N(C)C)cc(OC)c1OC [Compound No. 19, 1,1,3-Trimethyl-5-(3,4,5-trimethoxyphenyl)biuret] | 2/4 | – | 23% | – | 62.5% | Acute toxicity, death number of mice/number of mice tested (ddy strain of male mice [1]; 500 mg/kg): 0/4; ED50 (ddy strain of male mice [3]; oral, mice, range in parentheses, read-out: Analgesic activity, acetic acid-induced stretching method, 50% effective dose, ED50 (values with Δ marks)): 38 mg/kg; inhibition in vivo at 100 mg/kg [5, 7]: 30%
Cc1cccc(NC(=O)N(C)C(=O)N(C)C)c1C [compound 23, 1,1,3-Trimethyl-5-(2,3-dimethylphenyl)biuret] | 1/4 | 4/4 | 40% | – | 25% | inhibition in vivo at 100 mg/kg (ddy strain of male mice [3]; 100 mg/kg oral, mice): 50%
CN(C)C(=O)N(C)C(=O)Nc1ccccc1F [Compound No. 2, 1,1,3-Trimethyl-5-(2-fluorophenyl)biuret] | 1/4 | 4/4 | 76% | 62.5% | 75% | inhibition in vivo at 100 mg/kg ([5]; 100 mg/kg oral, rats, 3 hours after carrageenin, read-out: Anti-inflammatory activity, inflammation inhibitory ratio): 63%
CCCCN(C(=O)Nc1ccccc1)C(=O)N(C)C [compound 32, 1,1-Dimethyl-3-n-butyl-5-phenylbiuret] | 0/4 | 3/4 | 18% | 37.5% | 31% | –
CN(C)C(=O)N(C)C(=O)Nc1ccc(Cl)cc1Cl [compound 8, 1,1,3-Trimethyl-5-(2,4-dichlorophenyl)biruet] | 0/4 | 3/4 | 42% | 50% | 75% | –
CCCCN(C)C(=O)N(C)C(=O)Nc1ccccc1 [compound 35, 1-n-Butyl-1,3-dimethyl-5-phenylbiuret] | 0/4 | 3/4 | 35% | 37.5% | 25% | –
CCN(C(=O)Nc1ccccc1)C(=O)N(C)C [compound 30, 1,1-Dimethyl-3-ethyl-5-phenylbiuret] | 0/4 | 3/4 | 12% | 62.5% | – | inhibition in vivo at 100 mg/kg [5, 7]: 23%
